Experimental data as given in ChEMBL document CHEMBL4507286 (2021).

Key:
[1] = tested on: Receptor-type tyrosine-protein kinase FLT3 (Homo sapiens), P36888 [R834Q]
[2] = target: Dual specificity mitogen-activated protein kinase kinase 5 (Homo sapiens) (UniProt Q13163)
[3] = target: Kappa-type opioid receptor (Homo sapiens) (UniProt P41145); details: Compound concentration 10.0 uM
[4] = target: Cyclin-dependent kinase 13 (Homo sapiens) (UniProt Q14004)
[5] = target: Muscle, skeletal receptor tyrosine-protein kinase (Homo sapiens) (UniProt O15146)
[6] = target: Serine/threonine-protein kinase ULK1 (Homo sapiens) (UniProt O75385)
[7] = target: Histamine H4 receptor (Homo sapiens) (UniProt Q9H3N8); details: Compound concentration 10.0 uM
[8] = target: Ribosomal protein S6 kinase alpha-3 (Homo sapiens) (UniProt P51812)
[9] = target: Sodium-dependent dopamine transporter (Homo sapiens) (UniProt Q01959); details: Compound concentration 10.0 uM
[10] = target: Rho-associated protein kinase 2 (Homo sapiens) (UniProt O75116)
[11] = target: Serine/threonine-protein kinase VRK2 (Homo sapiens) (UniProt Q86Y07)
[12] = target: RAC-alpha serine/threonine-protein kinase (Homo sapiens) (UniProt P31749)
[13] = target: Activin receptor type-2A (Homo sapiens) (UniProt P27037)
[14] = target: Tyrosine-protein kinase Yes (Homo sapiens) (UniProt P07947)
[15] = target: SRSF protein kinase 3 (Homo sapiens) (UniProt Q9UPE1)
[16] = target: Serine/threonine-protein kinase RIO3 (Homo sapiens) (UniProt O14730)
[17] = target: Serine/threonine-protein kinase TBK1 (Homo sapiens) (UniProt Q9UHD2)
[18] = target: Eukaryotic translation initiation factor 2-alpha kinase 1 (Homo sapiens) (UniProt Q9BQI3)
[19] = target: Activin receptor type-1B (Homo sapiens) (UniProt P36896)
[20] = target: Dual specificity protein kinase CLK2 (Homo sapiens, UniProt P49760)
[21] = target: Serine/threonine-protein kinase tousled-like 2 (Homo sapiens) (UniProt Q86UE8)
[22] = target: Tyrosine-protein kinase ABL1 (Homo sapiens) (UniProt P00519)
[23] = target: Mitogen-activated protein kinase kinase kinase kinase 5 (Homo sapiens) (UniProt Q9Y4K4)
[24] = target: Ephrin type-A receptor 5 (Homo sapiens) (UniProt P54756)
[25] = target: Ribosomal protein S6 kinase alpha-4 (Homo sapiens) (UniProt O75676)
[26] = target: Serine/threonine-protein kinase tousled-like 1 (Homo sapiens) (UniProt Q9UKI8)
[27] = target: Ribosomal protein S6 kinase beta-1 (Homo sapiens) (UniProt P23443)
[28] = target: Proto-oncogene tyrosine-protein kinase ROS (Homo sapiens) (UniProt P08922)
[29] = target: Serine/threonine-protein kinase Sgk3 (Homo sapiens) (UniProt Q96BR1)
[30] = target: Receptor-interacting serine/threonine-protein kinase 1 (Homo sapiens) (UniProt Q13546)
[31] = target: 5'-AMP-activated protein kinase catalytic subunit alpha-1 (Homo sapiens) (UniProt Q13131)
[32] = target: Serine/threonine-protein kinase MAK (Homo sapiens) (UniProt P20794)
[33] = tested on: Tyrosine-protein kinase ABL1 (Homo sapiens), P00519 [M351T]
[34] = target: Ribosomal protein S6 kinase alpha-3 (Homo sapiens) (UniProt P51812); remark: listed apart in the source
[35] = target: Uncharacterized serine/threonine-protein kinase SBK3 (Homo sapiens) (UniProt P0C264)
[36] = tested on: Tyrosine-protein kinase ABL1 (Homo sapiens), P00519 [E255K]
[37] = target: cAMP-dependent protein kinase catalytic subunit PRKX (Homo sapiens) (UniProt P51817)
[38] = tested on: Epidermal growth factor receptor (Homo sapiens), P00533 [G719C]
[39] = target: NUAK family SNF1-like kinase 1 (Homo sapiens) (UniProt O60285)
[40] = target: Serine/threonine-protein kinase PAK 5 (Homo sapiens) (UniProt Q9P286)
[41] = target: Serine/threonine-protein kinase Sgk1 (Homo sapiens) (UniProt O00141)
[42] = target: Cyclin-dependent kinase-like 5 (Homo sapiens) (UniProt O76039)
[43] = target: Casein kinase I isoform gamma-1 (Homo sapiens) (UniProt Q9HCP0)
[44] = target: D(3) dopamine receptor (Homo sapiens) (UniProt P35462); details: Compound concentration 10.0 uM
[45] = target: Phosphatidylinositol 4-phosphate 5-kinase type-1 gamma (Homo sapiens) (UniProt O60331)
[46] = Compound concentration 1000.0 nM
[47] = Compound concentration 100.0 nM

Sequence of Ribosomal protein S6 kinase alpha-3 (Homo sapiens) (P51812 whole entry): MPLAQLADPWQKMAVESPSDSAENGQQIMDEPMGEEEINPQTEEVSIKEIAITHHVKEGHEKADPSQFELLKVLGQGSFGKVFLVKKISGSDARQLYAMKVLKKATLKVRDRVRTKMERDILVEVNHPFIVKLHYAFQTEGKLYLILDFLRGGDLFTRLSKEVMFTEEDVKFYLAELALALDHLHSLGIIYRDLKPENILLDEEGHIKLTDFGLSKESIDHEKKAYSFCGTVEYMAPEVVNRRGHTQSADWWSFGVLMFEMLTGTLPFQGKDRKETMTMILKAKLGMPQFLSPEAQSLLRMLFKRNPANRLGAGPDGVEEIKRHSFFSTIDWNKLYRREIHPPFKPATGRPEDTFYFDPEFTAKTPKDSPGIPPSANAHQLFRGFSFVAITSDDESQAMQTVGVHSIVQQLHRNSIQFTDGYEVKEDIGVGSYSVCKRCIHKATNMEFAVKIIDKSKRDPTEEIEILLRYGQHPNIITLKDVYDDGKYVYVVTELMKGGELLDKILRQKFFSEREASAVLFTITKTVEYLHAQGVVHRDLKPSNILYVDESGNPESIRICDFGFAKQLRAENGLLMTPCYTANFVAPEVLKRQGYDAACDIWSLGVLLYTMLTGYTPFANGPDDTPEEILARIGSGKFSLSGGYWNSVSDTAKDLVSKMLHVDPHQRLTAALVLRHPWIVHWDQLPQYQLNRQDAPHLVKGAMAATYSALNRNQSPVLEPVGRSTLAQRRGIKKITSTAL
Sequence of NUAK family SNF1-like kinase 1 (Homo sapiens) (O60285 whole entry): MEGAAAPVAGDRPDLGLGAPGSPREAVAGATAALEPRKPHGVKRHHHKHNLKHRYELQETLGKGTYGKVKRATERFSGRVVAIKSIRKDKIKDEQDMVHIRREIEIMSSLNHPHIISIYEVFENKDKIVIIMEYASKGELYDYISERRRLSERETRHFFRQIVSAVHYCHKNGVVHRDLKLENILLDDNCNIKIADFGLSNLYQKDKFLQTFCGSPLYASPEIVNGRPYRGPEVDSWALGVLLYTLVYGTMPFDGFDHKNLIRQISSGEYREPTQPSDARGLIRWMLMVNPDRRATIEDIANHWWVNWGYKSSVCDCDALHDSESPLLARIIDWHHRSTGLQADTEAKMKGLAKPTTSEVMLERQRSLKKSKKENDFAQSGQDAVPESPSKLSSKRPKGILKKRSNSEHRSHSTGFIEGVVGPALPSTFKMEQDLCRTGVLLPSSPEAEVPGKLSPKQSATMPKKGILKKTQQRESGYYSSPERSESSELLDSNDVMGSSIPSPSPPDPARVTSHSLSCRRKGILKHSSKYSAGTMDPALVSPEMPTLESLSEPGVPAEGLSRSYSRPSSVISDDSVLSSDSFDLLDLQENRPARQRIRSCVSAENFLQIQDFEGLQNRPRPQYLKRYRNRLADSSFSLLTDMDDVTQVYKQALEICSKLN
Sequence of Sodium-dependent dopamine transporter (Homo sapiens) (Q01959 whole entry): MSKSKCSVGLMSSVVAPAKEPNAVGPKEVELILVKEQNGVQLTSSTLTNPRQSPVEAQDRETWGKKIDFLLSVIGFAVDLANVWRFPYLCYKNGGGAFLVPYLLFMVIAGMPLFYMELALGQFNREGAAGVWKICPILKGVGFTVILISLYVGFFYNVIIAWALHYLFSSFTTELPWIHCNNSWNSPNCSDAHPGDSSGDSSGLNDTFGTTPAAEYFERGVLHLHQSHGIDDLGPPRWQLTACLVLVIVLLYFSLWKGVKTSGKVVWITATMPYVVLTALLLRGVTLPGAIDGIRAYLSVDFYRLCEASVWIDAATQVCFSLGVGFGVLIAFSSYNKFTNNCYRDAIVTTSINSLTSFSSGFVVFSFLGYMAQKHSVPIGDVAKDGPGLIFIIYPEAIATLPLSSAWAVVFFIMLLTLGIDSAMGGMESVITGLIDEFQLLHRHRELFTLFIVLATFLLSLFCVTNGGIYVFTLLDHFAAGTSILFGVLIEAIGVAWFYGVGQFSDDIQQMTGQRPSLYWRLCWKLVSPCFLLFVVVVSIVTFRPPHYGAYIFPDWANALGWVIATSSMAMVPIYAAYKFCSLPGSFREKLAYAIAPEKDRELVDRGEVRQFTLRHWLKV
Sequence of Tyrosine-protein kinase Yes (Homo sapiens) (P07947 2-543 limits assumed): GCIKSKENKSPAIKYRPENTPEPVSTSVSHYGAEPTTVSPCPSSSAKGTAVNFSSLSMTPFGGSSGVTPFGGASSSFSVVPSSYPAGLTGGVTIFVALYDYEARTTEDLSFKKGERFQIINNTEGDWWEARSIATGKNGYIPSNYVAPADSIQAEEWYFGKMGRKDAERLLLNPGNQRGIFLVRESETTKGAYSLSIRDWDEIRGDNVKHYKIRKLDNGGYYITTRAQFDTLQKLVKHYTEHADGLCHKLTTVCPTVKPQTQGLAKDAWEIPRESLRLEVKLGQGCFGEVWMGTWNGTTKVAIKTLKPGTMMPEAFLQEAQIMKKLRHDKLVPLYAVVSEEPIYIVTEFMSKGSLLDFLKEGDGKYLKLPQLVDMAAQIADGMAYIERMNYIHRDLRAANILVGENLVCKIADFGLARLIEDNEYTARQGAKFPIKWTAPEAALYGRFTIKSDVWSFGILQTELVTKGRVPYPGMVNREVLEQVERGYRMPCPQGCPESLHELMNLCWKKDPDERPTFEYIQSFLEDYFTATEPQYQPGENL
Sequence of Serine/threonine-protein kinase MAK (Homo sapiens) (P20794 whole entry): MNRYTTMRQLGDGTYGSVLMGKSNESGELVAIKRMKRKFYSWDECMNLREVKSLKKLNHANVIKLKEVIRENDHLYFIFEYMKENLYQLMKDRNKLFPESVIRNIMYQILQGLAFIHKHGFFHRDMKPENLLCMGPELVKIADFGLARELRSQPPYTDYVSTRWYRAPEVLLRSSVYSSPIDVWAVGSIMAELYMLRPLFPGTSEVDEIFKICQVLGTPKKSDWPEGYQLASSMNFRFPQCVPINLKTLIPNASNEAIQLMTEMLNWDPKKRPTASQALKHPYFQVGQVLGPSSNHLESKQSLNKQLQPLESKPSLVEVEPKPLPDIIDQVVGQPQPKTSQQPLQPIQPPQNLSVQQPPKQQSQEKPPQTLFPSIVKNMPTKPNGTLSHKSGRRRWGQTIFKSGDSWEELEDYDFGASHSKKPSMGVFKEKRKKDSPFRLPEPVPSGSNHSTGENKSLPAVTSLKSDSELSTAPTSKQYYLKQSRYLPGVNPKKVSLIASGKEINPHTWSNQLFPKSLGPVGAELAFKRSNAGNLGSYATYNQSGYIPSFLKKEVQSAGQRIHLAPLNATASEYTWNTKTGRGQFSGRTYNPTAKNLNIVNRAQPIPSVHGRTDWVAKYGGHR
Sequence of Kappa-type opioid receptor (Homo sapiens) (P41145 whole entry): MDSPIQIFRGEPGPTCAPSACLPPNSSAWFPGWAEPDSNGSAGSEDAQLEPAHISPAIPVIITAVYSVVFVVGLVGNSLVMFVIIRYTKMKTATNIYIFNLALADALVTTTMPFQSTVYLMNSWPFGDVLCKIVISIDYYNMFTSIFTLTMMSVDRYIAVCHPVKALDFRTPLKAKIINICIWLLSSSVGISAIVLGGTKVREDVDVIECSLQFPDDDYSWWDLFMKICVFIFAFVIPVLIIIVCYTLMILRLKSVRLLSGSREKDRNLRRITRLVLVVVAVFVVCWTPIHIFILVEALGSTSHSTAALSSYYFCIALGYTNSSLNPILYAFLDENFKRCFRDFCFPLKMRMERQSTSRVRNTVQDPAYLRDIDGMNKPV
Sequence of Ephrin type-A receptor 5 (Homo sapiens) (P54756 whole entry): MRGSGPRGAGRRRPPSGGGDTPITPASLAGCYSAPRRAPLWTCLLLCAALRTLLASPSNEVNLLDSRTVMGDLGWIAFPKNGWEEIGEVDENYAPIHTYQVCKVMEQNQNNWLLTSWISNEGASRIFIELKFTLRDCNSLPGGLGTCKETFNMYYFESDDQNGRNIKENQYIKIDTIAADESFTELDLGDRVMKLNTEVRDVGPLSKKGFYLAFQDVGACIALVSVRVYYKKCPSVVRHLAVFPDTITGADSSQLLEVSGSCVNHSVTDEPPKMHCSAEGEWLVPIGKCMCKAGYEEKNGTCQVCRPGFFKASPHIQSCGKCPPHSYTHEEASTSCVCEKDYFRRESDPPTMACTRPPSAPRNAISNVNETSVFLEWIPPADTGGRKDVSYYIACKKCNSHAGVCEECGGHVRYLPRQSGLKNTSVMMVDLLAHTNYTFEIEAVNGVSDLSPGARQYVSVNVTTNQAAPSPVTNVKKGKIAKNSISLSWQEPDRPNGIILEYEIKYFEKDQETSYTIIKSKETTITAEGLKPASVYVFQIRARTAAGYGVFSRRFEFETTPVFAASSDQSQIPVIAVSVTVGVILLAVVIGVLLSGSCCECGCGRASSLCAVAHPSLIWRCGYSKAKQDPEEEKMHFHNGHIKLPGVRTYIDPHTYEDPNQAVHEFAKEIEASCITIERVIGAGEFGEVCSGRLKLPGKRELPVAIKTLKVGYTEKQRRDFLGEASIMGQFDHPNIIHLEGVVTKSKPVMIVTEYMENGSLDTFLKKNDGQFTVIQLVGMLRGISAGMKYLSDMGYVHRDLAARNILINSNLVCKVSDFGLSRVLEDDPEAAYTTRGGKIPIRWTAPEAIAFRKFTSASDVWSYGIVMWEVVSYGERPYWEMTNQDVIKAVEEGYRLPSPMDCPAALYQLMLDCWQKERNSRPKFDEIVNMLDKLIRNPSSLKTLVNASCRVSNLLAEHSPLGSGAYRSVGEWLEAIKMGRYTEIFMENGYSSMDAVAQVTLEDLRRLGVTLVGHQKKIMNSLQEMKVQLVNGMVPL
Sequence of Histamine H4 receptor (Homo sapiens) (Q9H3N8 whole entry): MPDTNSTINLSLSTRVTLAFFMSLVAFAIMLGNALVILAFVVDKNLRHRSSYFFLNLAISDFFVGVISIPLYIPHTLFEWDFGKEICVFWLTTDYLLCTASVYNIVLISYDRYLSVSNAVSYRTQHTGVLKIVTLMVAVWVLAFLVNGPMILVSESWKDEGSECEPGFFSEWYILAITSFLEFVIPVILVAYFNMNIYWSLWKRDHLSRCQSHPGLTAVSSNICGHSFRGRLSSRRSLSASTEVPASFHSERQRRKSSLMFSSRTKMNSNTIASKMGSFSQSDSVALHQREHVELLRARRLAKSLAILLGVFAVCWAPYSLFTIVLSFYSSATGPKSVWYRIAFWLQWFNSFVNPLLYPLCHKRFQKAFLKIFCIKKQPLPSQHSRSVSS

C[C@H](NC(=O)Nc1cc2[nH]ncc2c(CO)n1)c1ccccn1 [ERKi-NC]
residual activity [1, 46]: 94.5%
residual activity [2, 46]: 17.6%
inhibition [3]: 22.9%
residual activity [4, 46]: 79%
residual activity [5, 46]: 100%
residual activity [6, 46]: 100%
inhibition [7]: 41.9%
residual activity [8, 46]: 79.5%
inhibition [9]: 4.79%
residual activity [10, 46]: 88.4%
residual activity [11, 46]: 100%
residual activity [12, 46]: 90%
residual activity [13, 46]: 85.6%
residual activity [14, 46]: 100%
residual activity [15, 46]: 100%
residual activity [16, 46]: 90.7%
residual activity [17, 46]: 48.3%
residual activity [18, 46]: 100%
residual activity [19, 46]: 76.1%
residual activity [20, 46]: 100%
residual activity [21, 46]: 88.4%
residual activity [22, 46]: 72.8%
residual activity [23, 46]: 99.6%
residual activity [24, 46]: 100%
residual activity [25, 46]: 100%
residual activity [26, 46]: 100%
residual activity [27, 46]: 58.3%
residual activity [28, 46]: 85%
residual activity [29, 46]: 93.6%
residual activity [30, 46]: 100%
residual activity [31, 46]: 100%
residual activity [32, 46]: 84.1%
residual activity [33, 46]: 89.8%
residual activity [34, 46]: 80.7%
residual activity [35, 46]: 100%
residual activity [36, 46]: 81.4%
residual activity [37, 46]: 100%
residual activity [38, 46]: 100%
residual activity [39, 46]: 100%
residual activity [40, 46]: 100%
residual activity [41, 46]: 97.4%
residual activity [42, 46]: 100%
residual activity [43, 46]: 100%
inhibition [44]: 27.9%
residual activity [45, 46]: 99.3%

C[C@@H](NC(=O)Nc1cc2[nH]ncc2c(CO)n1)c1ccccc1 [ERKi]
residual activity [1, 47]: 56.8%
residual activity [2, 47]: 89.1%
inhibition [3]: 10.3%
residual activity [4, 47]: 45.7%
residual activity [5, 47]: 86.8%
residual activity [6, 47]: 48.6%
inhibition [7]: 35.3%
residual activity [8, 47]: 85.4%
inhibition [9]: 46.5%
residual activity [10, 47]: 44.7%
residual activity [11, 47]: 76.3%
residual activity [12, 47]: 100%
residual activity [13, 47]: 74.7%
residual activity [14, 47]: 96.9%
residual activity [15, 47]: 100%
residual activity [16, 47]: 100%
residual activity [17, 47]: 84.8%
residual activity [18, 47]: 92.8%
residual activity [19, 47]: 100%
residual activity [20, 47]: 68.5%
residual activity [21, 47]: 86.9%
residual activity [22, 47]: 87%
residual activity [23, 47]: 86.8%
residual activity [24, 47]: 87.9%
residual activity [25, 47]: 94.5%
residual activity [26, 47]: 80.3%
residual activity [27, 47]: 90%
residual activity [28, 47]: 100%
residual activity [29, 47]: 83.2%
residual activity [30, 47]: 100%
residual activity [31, 47]: 91%
residual activity [32, 47]: 97.9%
residual activity [33, 47]: 100%
residual activity [34, 47]: 70%
residual activity [35, 47]: 100%
residual activity [36, 47]: 83.4%
residual activity [37, 47]: 46.1%
residual activity [38, 47]: 95.7%
residual activity [39, 47]: 94.9%
residual activity [40, 47]: 88.7%
residual activity [41, 47]: 62.5%
residual activity [42, 47]: 88.3%
residual activity [43, 47]: 83%
inhibition [44]: -2.24%
residual activity [45, 47]: 89.9%
